Tested on: Escherichia coli reference strain K12-MG1655
Assay: CombiANT self-interaction experiments (3 reservoirs filled with the same antibiotic)
Format: cell-based
Details: 3 biological replicates; Wilcoxon signed rank test
Description: FIG. 17 illustrates self-interaction experiments of the Escherichia coli reference strain K12-MG1655. FICi for all self-interactions for the 8 antibiotics AMP, CIP, CTX, GEN, FOF, NIT, MEC, TMP. Bars indicate average FICi values and standard deviation (SD) of 3 biological replicates.
First, as controls, we performed self-interaction experiments, where the 3 culture container insert reservoirs were filled with the same antibiotic. […] Next, to verify that the CombiANT™ assay produced valid synergy quantifications, we ran an accuracy and precision study. We tested all pairwise antibiotic interactions in the two Gram-negative reference strains E. coli […] and P. aeruginosa PA14, and the Gram-positive S. aureus reference strain ATCC29213 against a panel of 4 antibiotics. The tested antibiotics, ampicillin (AMP), cefotaxime (CTX), ciprofloxacin (CIP), and gentamicin (GEN), spanned three distinct mechanisms of action and are commonly used in treatments of bacteremia and sepsis caused by these bacterial species. FICi indices were calculated for all 6 pair-wise interactions and all three strains (FIG. 18A).

Molecule | nature of self-interaction (FICi)
CC1(C)S[C@@H]2[C@H](/N=C/N3CCCCCC3)C(=O)N2[C@H]1C(=O)O [MEC, mecillinam] | additive
O=C(O)c1cn(C2CC2)c2cc(N3CCNCC3)c(F)cc2c1=O [CIP, ciprofloxacin] | additive
gentamicin | additive
C[C@@H]1O[C@@H]1P(=O)(O)O [FOF, fosfomycin] | additive
COc1cc(Cc2cnc(N)nc2N)cc(OC)c1OC [TMP, trimethoprim] | additive
CC1(C)S[C@@H]2[C@H](NC(=O)[C@H](N)c3ccccc3)C(=O)N2[C@H]1C(=O)O [AMP, ampicillin] | additive
CO/N=C(\C(=O)N[C@@H]1C(=O)N2C(C(=O)O)=C(COC(C)=O)CS[C@H]12)c1csc(N)n1 [CTX, cefotaxime] | additive

Source: patent US12729393B2, “Agent interaction effects determination” (priority 2020, dated 2026)
